In patent publication US20210254272A1, “TEXTILES HAVING ANTIMICROBIAL PROPERTIES” (Livinguard AG, priority 2015, published 2021):

System: E. coli (ATCC 25922)
Assay: AATCC Test Method 100-2012 antibacterial activity of the treated textile, after 25 washes and 12 abrasion cycles, contact time 60 minutes
Format: cell-based
Conditions: for Log reduction of antimicrobial performance: 1% o.w.f; for Log reduction of antimicrobial performance in 100 GSM Polyester fabric / Log reduction of antimicrobial performance in 100 GSM cotton fabric / Log reduction of antimicrobial performance in 300 GSM Polyester fabric / Log reduction of antimicrobial performance in 300 GSM cotton fabric / Performance Test-Log reduction of antimicrobial performance: 2 min; for Performance Test-Log reduction of antimicrobial performance: pad process, single agent 5 gm/lit
Description: The antibacterial activity of the textile was tested in accordance with AATCC Test Method 100-2012. Prior to the test, the fabric was cut into coupons of 2×4 inches and washed separately 25 times, and exposed to 12 abrasion cycles, as per US EPA protocol 90072PA4 (described further below). The tests were made against E. coli (ATCC 25922). Contact time was 60 minutes, after inoculating with 10^8 CFU per coupon.

[1] = exhaust 80° C., 60 min, curing 180° C., dosage 0.1% o.w.f
[2] = exhaust 80° C., 60 min, curing 180° C., dosage 0.2% o.w.f
[3] = exhaust 80° C., 60 min, curing 180° C., dosage 0.5% o.w.f
[4] = exhaust 80° C., 60 min, curing 180° C., dosage 0.8% o.w.f
[5] = exhaust 80° C., 60 min, curing 180° C., dosage 1.0% o.w.f

SMILES: CCCCCCCCCCCCCCCCCC[N+](C)(C)CCC[Si](OC)(OC)OC [Organosilane, dimethyloctadecyl[3-(trimethoxysilyl)propyl] ammonium chloride]
- Log reduction of antimicrobial performance of each active ingredient (exhaust 60° C., solution dosage 1% o.w.f, process time 60 min): 1.5 Log
- Log reduction of antimicrobial performance of each active ingredient (exhaust 60° C., solution dosage 1% o.w.f, process time 90 min): 1.7 Log
- Log reduction of antimicrobial performance of each active ingredient (exhaust 60° C., solution dosage 1% o.w.f, process time 120 min): 1.8 Log
- Log reduction of antimicrobial performance of each active ingredient (exhaust 60° C., solution dosage 1% o.w.f, process time 180 min): 1.8 Log
- Log reduction of antimicrobial performance of each active ingredient (exhaust 60° C., solution dosage 1% o.w.f, process time 240 min): 1.73 Log
- Log reduction of antimicrobial performance (exhaust 80° C., 60 min, curing 170° C., curing dwell time 0.5 min): 0.3 Log
- Log reduction of antimicrobial performance (exhaust 80° C., 60 min, curing 170° C., curing dwell time 1.0 min): 0.5 Log
- Log reduction of antimicrobial performance (exhaust 80° C., 60 min, curing 170° C., curing dwell time 1.5 min): 0.6 Log
- Log reduction of antimicrobial performance (exhaust 80° C., 60 min, curing 170° C., curing dwell time 2.0 min): 1.2 Log
- Log reduction of antimicrobial performance (exhaust 80° C., 60 min, curing 170° C., curing dwell time 2.5 min): 1.2 Log
- Log reduction of antimicrobial performance (exhaust 80° C., 60 min, curing 170° C., curing dwell time 3.0 min): 0.75 Log
- Log reduction of antimicrobial performance (exhaust 80° C., 60 min, curing 180° C., curing dwell time 0.5 min): 1.5 Log
- Log reduction of antimicrobial performance (exhaust 80° C., 60 min, curing 180° C., curing dwell time 1.0 min): 1.7 Log
- Log reduction of antimicrobial performance (exhaust 80° C., 60 min, curing 180° C., curing dwell time 1.5 min): 1.8 Log
- Log reduction of antimicrobial performance (exhaust 80° C., 60 min, curing 180° C., curing dwell time 2.0 min): 3.9 Log
- Log reduction of antimicrobial performance (exhaust 80° C., 60 min, curing 180° C., curing dwell time 2.5 min): 3.8 Log
- Log reduction of antimicrobial performance (exhaust 80° C., 60 min, curing 180° C., curing dwell time 3.0 min): 3.7 Log
- Log reduction of antimicrobial performance (exhaust 80° C., 60 min, curing 190° C., curing dwell time 0.5 min): 0.6 Log
- Log reduction of antimicrobial performance (exhaust 80° C., 60 min, curing 190° C., curing dwell time 1.0 min): 1.1 Log
- Log reduction of antimicrobial performance (exhaust 80° C., 60 min, curing 190° C., curing dwell time 1.5 min): 1.5 Log
- Log reduction of antimicrobial performance (exhaust 80° C., 60 min, curing 190° C., curing dwell time 2.0 min): 2.55 Log
- Log reduction of antimicrobial performance (exhaust 80° C., 60 min, curing 190° C., curing dwell time 2.5 min): 2.46 Log
- Log reduction of antimicrobial performance (exhaust 80° C., 60 min, curing 190° C., curing dwell time 3.0 min): 1.2 Log
- Log reduction of antimicrobial performance (exhaust 80° C., 60 min, curing temperature 100 ° C.): 0.17 Log
- Log reduction of antimicrobial performance (exhaust 80° C., 60 min, curing temperature 120 ° C.): 0.56 Log
- Log reduction of antimicrobial performance (exhaust 80° C., 60 min, curing temperature 140 ° C.): 0.97 Log
- Log reduction of antimicrobial performance (exhaust 80° C., 60 min, curing temperature 160 ° C.): 1.11 Log
- Log reduction of antimicrobial performance (exhaust 80° C., 60 min, curing temperature 165 ° C.): 1.16 Log
- Log reduction of antimicrobial performance (exhaust 80° C., 60 min, curing temperature 170 ° C.): 1.26 Log
- Log reduction of antimicrobial performance (exhaust 80° C., 60 min, curing temperature 175 ° C.): 2.16 Log
- Log reduction of antimicrobial performance (exhaust 80° C., 60 min, curing temperature 180 ° C.): 2.56 Log
- Log reduction of antimicrobial performance (exhaust 80° C., 60 min, curing temperature 185 ° C.): 2.59 Log
- Log reduction of antimicrobial performance (exhaust 80° C., 60 min, curing temperature 190 ° C.): 2.61 Log
- Log reduction of antimicrobial performance (exhaust 80° C., 60 min, curing temperature 195 ° C.): 2.63 Log
- Log reduction of antimicrobial performance in 100 GSM Polyester fabric [1]: 0.73 Log
- Log reduction of antimicrobial performance in 100 GSM cotton fabric [1]: 0.81 Log
- Log reduction of antimicrobial performance in 300 GSM Polyester fabric [1]: 0.75 Log
- Log reduction of antimicrobial performance in 300 GSM cotton fabric [1]: 0.82 Log
- Log reduction of antimicrobial performance in 100 GSM Polyester fabric [2]: 1.67 Log
- Log reduction of antimicrobial performance in 100 GSM cotton fabric [2]: 1.67 Log
- Log reduction of antimicrobial performance in 300 GSM Polyester fabric [2]: 1.65 Log
- Log reduction of antimicrobial performance in 300 GSM cotton fabric [2]: 1.68 Log
- Log reduction of antimicrobial performance in 100 GSM Polyester fabric [3]: 1.79 Log
- Log reduction of antimicrobial performance in 100 GSM cotton fabric [3]: 1.83 Log
- Log reduction of antimicrobial performance in 300 GSM Polyester fabric [3]: 1.80 Log
- Log reduction of antimicrobial performance in 300 GSM cotton fabric [3]: 1.83 Log
- Log reduction of antimicrobial performance in 100 GSM Polyester fabric [4]: 2.19 Log
- Log reduction of antimicrobial performance in 100 GSM cotton fabric [4]: 2.17 Log
- Log reduction of antimicrobial performance in 300 GSM Polyester fabric [4]: 2.20 Log
- Log reduction of antimicrobial performance in 300 GSM cotton fabric [4]: 2.18 Log
- Log reduction of antimicrobial performance in 100 GSM Polyester fabric [5]: 2.58 Log
- Log reduction of antimicrobial performance in 100 GSM cotton fabric [5]: 2.56 Log
- Log reduction of antimicrobial performance in 300 GSM Polyester fabric [5]: 2.58 Log
- Log reduction of antimicrobial performance in 300 GSM cotton fabric [5]: 2.57 Log
- Log reduction of antimicrobial performance of each active ingredient (exhaust 80° C., 60 min, dosage 1% o.w.f (test up to 5% o.w.f)): 2.38 Log
- Log reduction of antimicrobial performance of each active ingredient (exhaust 80° C., 60 min, dosage 2% o.w.f): 2.38 Log
- Log reduction of antimicrobial performance of each active ingredient (exhaust 80° C., 60 min, dosage 3% o.w.f): 2.41 Log
- Log reduction of antimicrobial performance of each active ingredient (exhaust 80° C., 60 min, dosage 4% o.w.f): 2.42 Log
- Log reduction of antimicrobial performance of each active ingredient (exhaust 80° C., 60 min, dosage 5% o.w.f): 2.43 Log
- Log reduction of antimicrobial performance of each active ingredient (exhaust 80 ° C., solution dosage 1% o.w.f, process time 10 min): 0.78 Log
- Log reduction of antimicrobial performance of each active ingredient (exhaust 80 ° C., solution dosage 1% o.w.f, process time 20 min): 1.11 Log
- Log reduction of antimicrobial performance of each active ingredient (exhaust 80 ° C., solution dosage 1% o.w.f, process time 30 min): 1.41 Log
- Log reduction of antimicrobial performance of each active ingredient (exhaust 80 ° C., solution dosage 1% o.w.f, process time 40 min): 1.84 Log
- Log reduction of antimicrobial performance of each active ingredient (exhaust 80 ° C., solution dosage 1% o.w.f, process time 50 min): 2.38 Log
- Log reduction of antimicrobial performance of each active ingredient (exhaust 80 ° C., solution dosage 1% o.w.f, process time 60 min): 2.56 Log
- Log reduction of antimicrobial performance of each active ingredient (exhaust 80 ° C., solution dosage 1% o.w.f, process time 70 min): 2.58 Log
- Log reduction of antimicrobial performance of each active ingredient (exhaust 80 ° C., solution dosage 1% o.w.f, process time 80 min): 2.61 Log
- Log reduction of antimicrobial performance of each active ingredient (exhaust 80 ° C., solution dosage 1% o.w.f, process time 90 min): 2.62 Log
- Performance Test-Log reduction of antimicrobial performance (curing 120° C.): 0.05 Log
- Performance Test-Log reduction of antimicrobial performance (curing 140° C.): 0.17 Log
- Performance Test-Log reduction of antimicrobial performance (curing 150° C.): 0.27 Log
- Performance Test-Log reduction of antimicrobial performance (curing 160° C.): 0.57 Log
